Where “and” joins values, the source holds several entries; their conditions need not be identical. Equal entries are not always repeated.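 Values below derive from 48-hour exposures of cells grown in 96-well plates, with endpoints linearly interpolated between the two concentrations bracketing the appropriate inhibition level. GI50: concentration for 50% inhibition of growth. TGI is the concentration that stops growth completely.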

Some test systems named below: K-562 leukemia; SF-295 CNS; SR leukemia; HS 578T breast; OVCAR-8 ovarian; SW-620 colon; IGROV1 ovarian; COLO 205 colon; MOLT-4 leukemia; M14 melanoma.
Assay in all cases: NCI-60 cell line screen, 48 h

Regarding `COc1ccc2c(c1)nnc1c3cccnc3[nH]c21`, the GI50 in the test on K-562 leukemia is 0.221 µM and 1.06 µM; with SR leukemia, 0.0313 µM and 0.0336 µM; with HS 578T breast, 3.47 µM and 4.89 µM; with OVCAR-8 ovarian, 0.619 µM and 0.376 µM; with SW-620 colon, 0.378 µM and 0.978 µM; in the test on IGROV1 ovarian, 0.31 µM and 0.55 µM. For the same compound, the GI50 was 1.13 µM and 0.735 µM in the test on COLO 205 colon; 0.0299 µM in the test on MOLT-4 leukemia; 1.07 µM and 3.26 µM with M14 melanoma. The TGI in the test on SF-295 CNS was 11.3 µM and > 100 µM; in the test with HS 578T breast, 25.5 µM and 81.2 µM; in the test on COLO 205 colon it was 4.87 µM and 2.31 µM; with MOLT-4 leukemia, 0.219 µM.

In the case of `Cc1c(-c2ccccn2)ccc2ccccc12`, the TGI with K-562 leukemia, with SF-295 CNS, in the test on SR leukemia, in the test on HS 578T breast, in the test with OVCAR-8 ovarian and with SW-620 colon was more than 100 µM throughout. Moreover, the TGI with COLO 205 colon, in the test with MOLT-4 leukemia and in the test with M14 melanoma was more than 100 µM each time.

As for `CCOC(=O)/C=C1/SC(=Nc2ccc(C#N)cc2)N(Cc2ccco2)C1=O`, the GI50 is 3.16 µM in the test on K-562 leukemia; 9.99 µM with SF-295 CNS; 2.71 µM in the test with SR leukemia; 6.96 µM in the test on HS 578T breast; 2.83 µM in the test on OVCAR-8 ovarian; 2.06 µM with SW-620 colon. In addition, the results for the GI50 with IGROV1 ovarian, in the test with MOLT-4 leukemia and in the test on M14 melanoma were 3.22 µM, 2.81 µM and 2.22 µM, respectively. Also, the TGI with K-562 leukemia was 11.4 µM; in the test with SF-295 CNS it was 26.6 µM; in the test on SR leukemia, 8.41 µM; in the test with HS 578T breast, more than 100 µM; in the test on OVCAR-8 ovarian, 7.94 µM; in the test with SW-620 colon, 4.97 µM. Moreover, the TGI worked out at 20.2 µM in the test with IGROV1 ovarian, 8.31 µM in the test on MOLT-4 leukemia and 6.55 µM in the test on M14 melanoma.

Regarding `CC/C=C\C[C@H]1C/C=C2/C(=O)C(Cl)=C[C@@H]2C/C=C\CCCC(=O)O1`, the GI50 in the test on K-562 leukemia was 0.0961 µM; with SF-295 CNS, 0.705 µM; with SR leukemia it was 0.0753 µM; in the test with HS 578T breast, 0.698 µM; in the test with OVCAR-8 ovarian it was 0.143 µM; in the test with SW-620 colon it was 0.0995 µM. The GI50 was 0.605 µM with IGROV1 ovarian, 0.467 µM with COLO 205 colon, 0.329 µM in the test with MOLT-4 leukemia and 0.681 µM in the test on M14 melanoma. Further, the TGI in the test on K-562 leukemia was 3.14 µM; with SF-295 CNS, 2.26 µM; in the test on SR leukemia, 4.93 µM; in the test on HS 578T breast it was 25 µM; in the test with OVCAR-8 ovarian it was 2.68 µM; in the test with SW-620 colon, 0.596 µM. Moreover, the TGI was found to be 1.94 µM with IGROV1 ovarian, 0.958 µM in the test on COLO 205 colon, 2.2 µM in the test with MOLT-4 leukemia and 3.08 µM in the test on M14 melanoma.

Consider `C(=N\Nc1ccc2ccccc2n1)/c1ccccn1`, for which the GI50 is 0.487 µM with K-562 leukemia; 0.348 µM in the test on SF-295 CNS; 0.328 µM in the test with SR leukemia; 2.36 µM with HS 578T breast; 0.463 µM in the test on OVCAR-8 ovarian; 0.644 µM in the test with SW-620 colon. In addition, the GI50 in the test on IGROV1 ovarian is 0.388 µM; with COLO 205 colon it was 0.41 µM; with MOLT-4 leukemia, 0.353 µM; in the test on M14 melanoma it was 0.565 µM. Moreover, the TGI with K-562 leukemia was more than 39.1 µM; in the test with SF-295 CNS it was 12.9 µM; with HS 578T breast, more than 52.9 µM; with OVCAR-8 ovarian it was more than 100 µM; in the test with SW-620 colon, more than 43.3 µM; in the test on IGROV1 ovarian it was 8.66 µM. For the same compound, the TGI with COLO 205 colon is 8.96 µM; in the test on MOLT-4 leukemia it was more than 21.8 µM; in the test with M14 melanoma it was 3.45 µM.

For the compound `NS(=O)(=O)c1ccc(N=Nc2c[nH]c(=O)c(O)c2)cc1`, the TGI in the test with K-562 leukemia, in the test on SF-295 CNS, in the test on SR leukemia, with HS 578T breast, in the test with OVCAR-8 ovarian and in the test on SW-620 colon was more than 100 µM throughout. For the same compound, the TGI in the test with IGROV1 ovarian, in the test on COLO 205 colon, in the test with MOLT-4 leukemia and in the test on M14 melanoma was more than 100 µM throughout.

For the compound `CC1(C)C(=O)/C=C\C(=O)C(C)(C)C(=O)/C=C\C(=O)C(C)(C)C2=CC=C(O2)C(C)(C)C(=O)/C=C\C1=O`, the TGI in the test on K-562 leukemia was more than 46.9 µM; in the test on SF-295 CNS it was 31.1 µM; with SR leukemia, 4.05 µM; in the test with HS 578T breast, 50 µM; with OVCAR-8 ovarian it was 11.6 µM; in the test with SW-620 colon, 3.59 µM. Also, the TGI was 24.9 µM in the test on IGROV1 ovarian, 6.45 µM in the test with COLO 205 colon, 4.81 µM with MOLT-4 leukemia and 5.63 µM with M14 melanoma.

For the compound `Clc1ccc(-c2nc(NCc3ccco3)c3ccccc3n2)c(Cl)c1`, the GI50 in the test on K-562 leukemia was 8.7 µM; with SF-295 CNS, 13.6 µM; in the test with SR leukemia it was 10.1 µM; in the test on HS 578T breast, 14.2 µM; in the test on OVCAR-8 ovarian it was 24.2 µM; in the test on IGROV1 ovarian it was 22.2 µM. The GI50 is 21.4 µM in the test on COLO 205 colon, 9.16 µM with MOLT-4 leukemia and 17.4 µM with M14 melanoma. Moreover, the TGI in the test with K-562 leukemia was 60.4 µM; in the test with SF-295 CNS, 33.5 µM; with SR leukemia, 44.7 µM; in the test with HS 578T breast it was 46.4 µM; in the test on OVCAR-8 ovarian, 82.7 µM; in the test on IGROV1 ovarian, more than 100 µM. Also, the TGI in the test on COLO 205 colon is more than 100 µM; in the test on MOLT-4 leukemia, more than 100 µM; in the test with M14 melanoma it was 36.1 µM.

On to `COc1ccc(-c2[nH]ncc2Nc2cc(OC)c(OC)c(OC)c2)cc1`, for which the GI50 in the test with K-562 leukemia is 0.42 µM; in the test on SF-295 CNS, 1.31 µM; with SR leukemia, 0.36 µM; in the test with HS 578T breast, 1.3 µM; with OVCAR-8 ovarian, 6.36 µM; with SW-620 colon it was 0.558 µM. Further, the GI50 was 2.51 µM in the test on IGROV1 ovarian, 1.61 µM in the test with COLO 205 colon, 2.12 µM in the test with MOLT-4 leukemia and 0.906 µM in the test on M14 melanoma. Besides, the TGI in the test on K-562 leukemia is more than 52.3 µM; in the test with SF-295 CNS, more than 21.1 µM; with SR leukemia it was more than 100 µM; in the test with HS 578T breast, 4.65 µM; in the test on OVCAR-8 ovarian, more than 100 µM; in the test with SW-620 colon it was more than 100 µM. For the same compound, the TGI in the test on IGROV1 ovarian is more than 100 µM; in the test on COLO 205 colon, 6.32 µM; in the test with MOLT-4 leukemia, 63.7 µM; with M14 melanoma it was more than 100 µM.

The values are drawn from PubChem BioAssay (NCI).
